Results as given in ChEMBL document CHEMBL4673219, “Novel 5,6-disubstituted pyrrolo[2,3-d]pyrimidine derivatives as broad spectrum antiproliferative agents: Synthesis, cell based assays, kinase profile and molecular docking study” (Bioorg Med Chem, 2018).

How the values were obtained:
Assay type in all cases: functional
A498 [1] = assay: Growth inhibition of human A498 cells assessed as growth percentage at 100 uM incubated for 48 hrs by sulforhodamine B assay relative to control; conditions: read-out: Activity
OVCAR-3 = assay: Growth inhibition of human OVCAR-3 cells assessed as growth percentage at 10 uM incubated for 48 hrs by sulforhodamine B assay relative to control; conditions: read-out: Activity
SR [2] = assay: Growth inhibition of human SR cells assessed as growth percentage at 0.1 uM incubated for 48 hrs by sulforhodamine B assay relative to control; conditions: read-out: Activity
BT-549 = assay: Growth inhibition of human BT-549 cells assessed as growth percentage at 0.01 uM incubated for 48 hrs by sulforhodamine B assay relative to control; conditions: read-out: Activity
HCT-15 = assay: Growth inhibition of human HCT-15 cells assessed as growth percentage at 10 uM incubated for 48 hrs by sulforhodamine B assay relative to control; conditions: read-out: Activity
LOX IMVI = assay: Growth inhibition of human LOX IMVI cells assessed as growth percentage at 0.01 uM incubated for 48 hrs by sulforhodamine B assay relative to control; conditions: read-out: Activity
PC-3 = assay: Growth inhibition of human PC-3 cells assessed as growth percentage at 100 uM incubated for 48 hrs by sulforhodamine B assay relative to control; conditions: read-out: Activity
HOP-92 [3] = assay: Growth inhibition of human HOP-92 cells assessed as growth percentage at 1 uM incubated for 48 hrs by sulforhodamine B assay relative to control; conditions: read-out: Activity
MCF7 = assay: Growth inhibition of human MCF7 cells assessed as growth percentage at 100 uM incubated for 48 hrs by sulforhodamine B assay relative to control; conditions: read-out: Activity
RXF 393 [4] = assay: Growth inhibition of human RXF 393 cells assessed as growth percentage at 100 uM incubated for 48 hrs by sulforhodamine B assay relative to control; conditions: read-out: Activity
MDA-MB-231 = assay: Growth inhibition of human MDA-MB-231/ATCC cells assessed as growth percentage at 1 uM incubated for 48 hrs by sulforhodamine B assay relative to control; conditions: read-out: Activity
M14 = assay: Growth inhibition of human M14 cells assessed as growth percentage at 100 uM incubated for 48 hrs by sulforhodamine B assay relative to control; conditions: read-out: Activity
HT-29 [5] = assay: Growth inhibition of human HT-29 cells assessed as growth percentage at 1 uM incubated for 48 hrs by sulforhodamine B assay relative to control; conditions: read-out: Activity
SNB-19 = assay: Growth inhibition of human SNB-19 cells assessed as growth percentage at 10 uM incubated for 48 hrs by sulforhodamine B assay relative to control; conditions: read-out: Activity
HCT-116 [6] = assay: Growth inhibition of human HCT-116 cells assessed as growth percentage at 10 uM incubated for 48 hrs by sulforhodamine B assay relative to control; conditions: read-out: Activity
RXF 393 [7] = assay: Growth inhibition of human RXF 393 cells assessed as growth percentage at 0.01 uM incubated for 48 hrs by sulforhodamine B assay relative to control; conditions: read-out: Activity
SK-OV-3 [8] = assay: Growth inhibition of human SK-OV-3 cells assessed as growth percentage at 10 uM incubated for 48 hrs by sulforhodamine B assay relative to control; conditions: read-out: Activity
SW-620 [9] = assay: Growth inhibition of human SW-620 cells assessed as growth percentage at 1 uM incubated for 48 hrs by sulforhodamine B assay relative to control; conditions: read-out: Activity
HOP-62 = assay: Growth inhibition of human HOP-62 cells assessed as growth percentage at 10 uM incubated for 48 hrs by sulforhodamine B assay relative to control; conditions: read-out: Activity
NCI-H322M = assay: Growth inhibition of human NCI-H322M cells assessed as growth percentage at 10 uM incubated for 48 hrs by sulforhodamine B assay relative to control; conditions: read-out: Activity
NCI-H226 = assay: Growth inhibition of human NCI-H226 cells assessed as growth percentage at 0.01 uM incubated for 48 hrs by sulforhodamine B assay relative to control; conditions: read-out: Activity
SN12C [10] = assay: Growth inhibition of human SN12C cells assessed as growth percentage at 0.1 uM incubated for 48 hrs by sulforhodamine B assay relative to control; conditions: read-out: Activity
MDA-MB-435 = assay: Growth inhibition of human MDA-MB-435 cells assessed as growth percentage at 0.1 uM incubated for 48 hrs by sulforhodamine B assay relative to control; conditions: read-out: Activity
KM12 = assay: Growth inhibition of human KM12 cells assessed as growth percentage at 100 uM incubated for 48 hrs by sulforhodamine B assay relative to control; conditions: read-out: Activity
SK-OV-3 [11] = assay: Growth inhibition of human SK-OV-3 cells assessed as growth percentage at 0.01 uM incubated for 48 hrs by sulforhodamine B assay relative to control; conditions: read-out: Activity
HCT-116 [12] = assay: Growth inhibition of human HCT-116 cells incubated for 48 hrs by sulforhodamine B assay; conditions: for CC50: read-out: LC50 (the source's name)
HCT-116 [13] = assay: Growth inhibition of human HCT-116 cells assessed as growth percentage at 0.01 uM incubated for 48 hrs by sulforhodamine B assay relative to control; conditions: read-out: Activity
SF-295 = assay: Growth inhibition of human SF-295 cells assessed as growth percentage at 10 uM incubated for 48 hrs by sulforhodamine B assay relative to control; conditions: read-out: Activity
NCI-H460 = assay: Growth inhibition of human NCI-H460 cells assessed as growth percentage at 0.01 uM incubated for 48 hrs by sulforhodamine B assay relative to control; conditions: read-out: Activity
SR [14] = assay: Growth inhibition of human SR cells assessed as growth percentage at 100 uM incubated for 48 hrs by sulforhodamine B assay relative to control; conditions: read-out: Activity
NCI-H23 = assay: Growth inhibition of human NCI-H23 cells assessed as growth percentage at 100 uM incubated for 48 hrs by sulforhodamine B assay relative to control; conditions: read-out: Activity
HOP-92 [15] = assay: Growth inhibition of human HOP-92 cells assessed as growth percentage at 10 uM incubated for 48 hrs by sulforhodamine B assay relative to control; conditions: read-out: Activity
OVCAR-4 = assay: Growth inhibition of human OVCAR-4 cells assessed as growth percentage at 10 uM incubated for 48 hrs by sulforhodamine B assay relative to control; conditions: read-out: Activity
A498 [16] = assay: Growth inhibition of human A498 cells assessed as growth percentage at 1 uM incubated for 48 hrs by sulforhodamine B assay relative to control; conditions: read-out: Activity
SW-620 [17] = assay: Growth inhibition of human SW-620 cells assessed as growth percentage at 0.01 uM incubated for 48 hrs by sulforhodamine B assay relative to control; conditions: read-out: Activity
HT-29 [18] = assay: Growth inhibition of human HT-29 cells assessed as growth percentage at 100 uM incubated for 48 hrs by sulforhodamine B assay relative to control; conditions: read-out: Activity
SW-620 [19] = assay: Growth inhibition of human SW-620 cells assessed as growth percentage at 0.1 uM incubated for 48 hrs by sulforhodamine B assay relative to control; conditions: read-out: Activity
CCRF-CEM = assay: Growth inhibition of human CCRF-CEM cells assessed as growth percentage at 0.01 uM incubated for 48 hrs by sulforhodamine B assay relative to control; conditions: read-out: Activity
SN12C [20] = assay: Growth inhibition of human SN12C cells assessed as growth percentage at 10 uM incubated for 48 hrs by sulforhodamine B assay relative to control; conditions: read-out: Activity

SMILES: CCCCCCCC(=O)Nc1nc2[nH]c(CN3CCN(Cc4cccc(F)c4)CC3)c(CN3CCN(Cc4cccc(F)c4)CC3)c2c(=O)[nH]1
- growth at 100 µM (A498 [1]): -98%
- growth at 10 µM (OVCAR-3): -95%
- growth at 0.1 µM (SR [2]): 88%
- growth at 0.01 µM (BT-549): 110%
- growth at 10 µM (HCT-15): -70.8%
- growth at 0.01 µM (LOX IMVI): 87%
- growth at 100 µM (PC-3): -88%
- growth at 1 µM (HOP-92 [3]): 59%
- growth at 100 µM (MCF7): -63%
- growth at 100 µM (RXF 393 [4]): -95%
- growth at 1 µM (MDA-MB-231): 33%
- growth at 100 µM (M14): -73%
- growth at 1 µM (HT-29 [5]): -26%
- growth at 10 µM (SNB-19): -81.6%
- growth at 10 µM (HCT-116 [6]): -96.7%
- growth at 0.01 µM (RXF 393 [7]): 100%
- growth at 10 µM (SK-OV-3 [8]): -61%
- growth at 1 µM (SW-620 [9]): -72%
- growth at 10 µM (HOP-62): -93.2%
- growth at 10 µM (NCI-H322M): -41.2%
- growth at 0.01 µM (NCI-H226): 94%
- growth at 0.1 µM (SN12C [10]): 98%
- growth at 0.1 µM (MDA-MB-435): 90%
- growth at 100 µM (KM12): -47%
- growth at 0.01 µM (SK-OV-3 [11]): 108%
- GI50 (HCT-116 [12]; 48 h): 170 nM
- TGI (HCT-116 [12]; 48 h): 320 nM
- CC50 (HCT-116 [12]; 48 h): 600 nM
- GI50 (HCT-116 [12]; Homo sapiens, HCT-116, 48 h): 171 nM
- TGI (HCT-116 [12]; Homo sapiens, HCT-116, 48 h): 321 nM
- CC50 (HCT-116 [12]; Homo sapiens, HCT-116, 48 h): 601 nM
- growth at 0.01 µM (HCT-116 [13]): 95%
- growth at 10 µM (SF-295): -69.2%
- growth at 0.01 µM (NCI-H460): 94%
- growth at 100 µM (SR [14]): -12%
- growth at 100 µM (NCI-H23): -53%
- growth at 10 µM (HOP-92 [15]): -7.31%
- growth at 10 µM (OVCAR-4): -94%
- growth at 1 µM (A498 [16]): 66%
- growth at 0.01 µM (SW-620 [17]): 96%
- growth at 100 µM (HT-29 [18]): -68%
- growth at 0.1 µM (SW-620 [19]): 97%
- growth at 0.01 µM (CCRF-CEM): 98%
- growth at 10 µM (SN12C [20]): -90.6%

SMILES: Nc1nc2[nH]c(CN3CCN(c4cc(Cl)cc(Cl)c4)CC3)c(CN3CCN(c4cc(Cl)cc(Cl)c4)CC3)c2c(=O)[nH]1
- growth at 100 µM (A498 [1]): -72%
- growth at 10 µM (OVCAR-3): 89.7%
- growth at 0.1 µM (SR [2]): 105%
- growth at 0.01 µM (BT-549): 91%
- growth at 10 µM (HCT-15): 67.4%
- growth at 0.01 µM (LOX IMVI): 99%
- growth at 100 µM (PC-3): -81%
- growth at 1 µM (HOP-92 [3]): 65%
- growth at 100 µM (MCF7): -48%
- growth at 100 µM (RXF 393 [4]): -28%
- growth at 1 µM (MDA-MB-231): 101%
- growth at 100 µM (M14): -54%
- growth at 1 µM (HT-29 [5]): 91%
- growth at 10 µM (SNB-19): 79.8%
- growth at 10 µM (HCT-116 [6]): -10.2%
- growth at 0.01 µM (RXF 393 [7]): 95%
- growth at 10 µM (SK-OV-3 [8]): 90.2%
- growth at 1 µM (SW-620 [9]): 88%
- growth at 10 µM (HOP-62): 84.2%
- growth at 10 µM (NCI-H322M): 64.3%
- growth at 0.01 µM (NCI-H226): 95%
- growth at 0.1 µM (SN12C [10]): 99%
- growth at 0.1 µM (MDA-MB-435): 97%
- growth at 100 µM (KM12): -84%
- growth at 0.01 µM (SK-OV-3 [11]): 95%
- GI50 (HCT-116 [12]; Homo sapiens, HCT-116, 48 h): 1630 nM
- TGI (HCT-116 [12]; Homo sapiens, HCT-116, 48 h): 3170 nM
- CC50 (HCT-116 [12]; Homo sapiens, HCT-116, 48 h): 6180 nM
- growth at 0.01 µM (HCT-116 [13]): 100%
- growth at 10 µM (SF-295): 98.4%
- growth at 0.01 µM (NCI-H460): 105%
- growth at 100 µM (SR [14]): -30%
- growth at 100 µM (NCI-H23): -47%
- growth at 10 µM (HOP-92 [15]): 66.2%
- growth at 10 µM (OVCAR-4): 65.8%
- growth at 1 µM (A498 [16]): 75%
- growth at 0.01 µM (SW-620 [17]): 96%
- growth at 100 µM (HT-29 [18]): -70%
- growth at 0.1 µM (SW-620 [19]): 94%
- growth at 0.01 µM (CCRF-CEM): 99%
- growth at 10 µM (SN12C [20]): 73.1%
